Key:
[1] = Physical appearance and form stability at high relative humidity; format: physicochemical; conditions: for Hygroscopicity [physical appearance at high RH]: 90% RH, RT
[2] = free base; cited from earlier work
[3] = Brito-da-Costa et al 2020; cited from earlier work
[4] = Dynamic vapor sorption (DVS) hygroscopicity; format: physicochemical; conditions: for Hygroscopicity [DVS], grade in words: DVS 5% to 95% RH; for DVS wt. loss 95% to 5% RH: desorption 95% to 5% RH; for DVS wt. gain 5% to 95% RH / DVS water uptake 5% to 95% RH: sorption 5% to 95% RH; for DVS water uptake 5% to 95% RH / DVS water uptake 5% to 75% RH / DVS water uptake 75% to 95% RH: mol water per mol; for DVS hysteresis: sorption vs desorption; for DVS wt. loss 75% to 5% RH: desorption 75% to 5% RH; for DVS wt. loss 95% to 75% RH: desorption 95% to 75% RH; for DVS wt. gain 5% to 75% RH / DVS water uptake 5% to 75% RH: sorption 5% to 75% RH; for DVS wt. gain 75% to 95% RH / DVS water uptake 75% to 95% RH: sorption 75% to 95% RH

## CN(C)CCc1c[nH]c2ccccc12.O=S(=O)(O)O [DMT Sulfate Form A]
[1]; 1 day
  Hygroscopicity [physical appearance at high RH]: oil/deliquesced

## CN(C)CCc1c[nH]c2ccccc12 [DMT free base, N,N-dimethyltryptamine]
[2]
  Solubility in water: extremely low
[3]
  Degradation rate in solution: fast degradation rate

## CN(C)CCc1c[nH]c2ccccc12.O=C(O)CCC(=O)O [DMT Succinate Form A]
[4]
  Hygroscopicity [DVS], grade in words: low
  DVS wt. loss 95% to 5% RH: 0.175% wt.
  DVS wt. gain 5% to 95% RH: 0.171% wt.
  DVS water uptake 5% to 95% RH: (0.03 mol/mol
  DVS hysteresis: hysteresis
[4]; listed as DMT succinate Form A
  Hygroscopicity [DVS], grade in words: least hygroscopic
[4]; listed as Succinate A
  Hygroscopicity [DVS], grade in words: Low hygroscopicity
  DVS wt. loss 95% to 5% RH: 95% to 5%: 0.175% wt. loss some
  DVS wt. gain 5% to 95% RH: 0.171 % wt.
  DVS water uptake 5% to 95% RH: 0.03 mol/mol
[1]; 7 days
  Hygroscopicity [physical appearance at high RH]: white solid
[1]; after water absorption
  Physical form after water absorption: preservation of the physical form

## CN(C)CCc1c[nH]c2ccccc12.O=C(O)/C=C/C(=O)O [DMT Fumarate Form A]
[4]
  Hygroscopicity [DVS], grade in words: limited
  DVS wt. loss 95% to 5% RH: 0.679% wt.
  DVS wt. gain 5% to 95% RH: 0.573% wt.
  DVS water uptake 5% to 95% RH: (0.1 mol/mol
  DVS hysteresis: hysteresis
[4]; listed as Fumarate A
  Hygroscopicity [DVS], grade in words: Limited hygroscopicity
  DVS wt. loss 95% to 5% RH: 95% to 5%: 0.679% wt. loss some
  DVS wt. gain 5% to 95% RH: 0.573 % wt.
  DVS water uptake 5% to 95% RH: 0.1 mol/mol
[1]; 7 days
  Hygroscopicity [physical appearance at high RH]: white solid

## CN(C)CCc1c[nH]c2ccccc12.O=C(O)C[C@H](O)C(=O)O [DMT Malate Form A]
[4]
  Hygroscopicity [DVS], grade in words: significant
  DVS wt. loss 75% to 5% RH: 1.37% wt. loss
  DVS wt. loss 95% to 75% RH: 9.59% wt. loss
  DVS wt. gain 5% to 75% RH: 1.21% wt. gain
  DVS water uptake 5% to 75% RH: (0.4 mol/mol
  DVS wt. gain 75% to 95% RH: 9.75% wt. gain
  DVS water uptake 75% to 95% RH: (1.7 mol/mol
[4]; listed as Malate A
  Hygroscopicity [DVS], grade in words: Significant hygroscopicity
  DVS wt. loss 75% to 5% RH: 75% to 5%: 1.37% wt loss % wt.
  DVS wt. loss 95% to 75% RH: 95% to 75%: 9.59% wt. loss
  DVS wt. gain 5% to 75% RH: 1.21 % wt.
  DVS water uptake 5% to 75% RH: 0.4 mol/mol
  DVS wt. gain 75% to 95% RH: 9.75 % wt.
  DVS water uptake 75% to 95% RH: 1.7 mol/mol
[1]; 7 days
  Hygroscopicity [physical appearance at high RH]: white solid

From patent US12378194B2, “N, n-dimethyltryptamine salts and crystalline salt forms” (ATAI Therapeutics, Inc., priority 2021, dated 2025)
